Patent US20090280172A1, “GALENIC FORMULATIONS OF ORGANIC COMPOUNDS” (priority 2006, published 2009)

Assay: Bioavailability of transmucosal dosage forms of aliskiren compared with oral formulations
Format: in vivo
Settings: transmucosal route vs oral formulation e.g. as employed in WO2005/089729

increase of bioavailability over the bioavailability of an oral formulation: at least three times
SMILES: COCCCOc1cc(C[C@@H](C[C@H](N)[C@@H](O)C[C@H](C(=O)NCC(C)(C)C(N)=O)C(C)C)C(C)C)ccc1OC [aliskiren, 2(S),4(S),5(S),7(S)-N-(3-amino-2,2-dimethyl-3-oxopropyl)-2,7-di(1-methylethyl)-4-hydroxy-5-amino-8-[4-methoxy-3-(3-methoxy-propoxy)phenyl]-octanamide]
